PubChem BioAssay AID1963969 (Molecular Pharmacology Branch, DTP, NCI, 2024)

Test system: 817829-284-R-J1-PDC multi-cell spheroid viability
Assay: Anticancer human tumor 817829-284-R-J1-PDC patient-derived colon adenocarcinoma cell line growth inhibition [PI3K]
Settings: for IC50: curve of first compound; for viability, T/C: stronger effect = lower value; active means viability on the fitted dose curve at most 10% of control; inactive means the rest
Text: Combinatorial screen of targeted agents with the PI3K inhibitors inavolisib, alpelisib, duvelisib, and copanlisib in multi-cell type tumor spheroids
A high-throughput screen of multi-cell type tumor spheroids was designed to identify active combinations of targeted small molecules and PI3K pathway inhibitors. Complex spheroids include a stromal component modeled by human endothelial cells (HUVEC) and fibroblasts modeled by human mesenchymal stem cells (MSCs). The concentration ranges selected for each drug and investigational agent were based upon clinically achievable concentrations if the clinical Cmax of the agent was known.
Compounds. The drugs and investigational agents: inavolisib (NSC800729), alpelisib (NSC765974), duvelisib (NSC772469), copanlisib (NSC816437), ipatasertib (NSC767898), afuresertib (NSC778305), talazoparib (NSC767125), sapanisertib (NSC764658), selumetinib (NSC741078), tovorafenib (DAY101, NSC766906), vemurafenib (NSC761431), ravoxertinib (NSC781343), sotorasib (NSC818433), MRTX1133 (NSC 836407), abemaciclib (NSC 768073), palbociclib (NSC758247), venetoclax (NSC 766270), SY5609 (NSC837396), enzalutamide (NSC755605), and darolutamide (NSC825331), were obtained from the National Cancer Institute (NCI) Developmental Therapeutics Program Chemical Repository. The FDA-approved anticancer drug set is available from the NCI Developmental Therapeutics Program. […] The stock solutions were prepared in dimethyl sulfoxide (DMSO, Sigma-Aldrich, St. Louis, MO, cat. D2650) at 800-fold the tested concentration and stored at -70 degrees C prior to their use. All drugs and investigational agents were tested over a range starting from a high concentration at or near the clinical Cmax and decreasing in half-log increments. If the clinical Cmax for an agent had not been determined, the highest concentration tested was 10 microM.
Cell Culture. All cells were maintained in an incubator at 37 degrees C and 5% CO2 with 95% humidity. The PDC lines were cultured according to standard operating procedures established by the NCI PDMR (https://pdmr.cancer.gov/sops/default.htm). All PDCs were thawed and cultured in Matrigel-coated flasks prepared with a working solution of 1X Ham's F-12 nutrient mix, without supplementation (Invitrogen, Waltham, MA, cat. 11765054), 100 U/mL penicillin-streptomycin (Invitrogen, cat. 15140122), and 2.5% Matrigel (Corning Inc., Corning, NY, cat. 354248) for the first three passages. The 354836-022-R-J1-PDC, 475296-252-R-J1-PDC, and 997726-040-R-J2-PDC lines were cultured in 6A media, which includes advanced DMEM/F-12 (Thermo Fisher Scientific, cat. 12634028), 10 mM HEPES (Thermo Fisher Scientific, cat. 15630080), 1X GlutaMAX supplement (Thermo Fisher Scientific, cat. 35050061), 0.1 mg/mL primocin (InvivoGen, San Diego, CA, cat. ant-pm-2), 10% defined fetal bovine serum, heat inactivated (HyClone Laboratories Inc., Logan, UT, cat. SH30070.03HI), 50% L-WRN conditioned media (ATCC, cat. CRL-3276), 1.25 mM N-Acetyl-L-cysteine (Sigma-Aldrich, cat. A9165), 10 mM nicotinamide (Sigma-Aldrich, cat. N0636), 1X B-27 supplement (Thermo Fisher Scientific, cat. 17504044), 1X N-2 supplement (Thermo Fisher Scientific, cat. 17502048), and 10 microM Y-27632 dihydrochloride (Tocris Bioscience, Bristol, United Kingdom, cat. 1254). The 624824-186-R-J2-PDC line was cultured in 6C/Colon 1B media, which includes all 6A media components plus 50 ng/mL human EGF recombinant protein (Thermo Fisher Scientific, cat. PHG0311). […]

[1] = second compound 0.00316 µM, first compound 0.0316 µM
[2] = second compound 0.00316 µM, first compound 0.1 µM
[3] = second compound 0.00316 µM, first compound 0.316 µM
[4] = second compound 0.00316 µM, first compound 1 µM
[5] = second compound 0.00316 µM, first compound 3.16 µM
[6] = second compound 0.00316 µM, first compound 10 µM
[7] = second compound 0.01 µM, first compound 0.0316 µM
[8] = second compound 0.01 µM, first compound 0.1 µM
[9] = second compound 0.01 µM, first compound 0.316 µM
[10] = second compound 0.01 µM, first compound 1 µM
[11] = second compound 0.01 µM, first compound 3.16 µM
[12] = second compound 0.01 µM, first compound 10 µM
[13] = second compound 0.0316 µM, first compound 0.0316 µM
[14] = second compound 0.0316 µM, first compound 0.1 µM
[15] = second compound 0.0316 µM, first compound 0.316 µM
[16] = second compound 0.0316 µM, first compound 1 µM
[17] = second compound 0.0316 µM, first compound 3.16 µM
[18] = second compound 0.0316 µM, first compound 10 µM
[19] = second compound 0.1 µM, first compound 0.0316 µM
[20] = second compound 0.1 µM, first compound 0.1 µM
[21] = second compound 0.1 µM, first compound 0.316 µM
[22] = second compound 0.1 µM, first compound 1 µM
[23] = second compound 0.1 µM, first compound 3.16 µM
[24] = second compound 0.1 µM, first compound 10 µM
[25] = second compound 0.316 µM, first compound 0.0316 µM
[26] = second compound 0.316 µM, first compound 0.1 µM
[27] = second compound 0.316 µM, first compound 0.316 µM
[28] = second compound 0.316 µM, first compound 1 µM
[29] = second compound 0.316 µM, first compound 3.16 µM
[30] = second compound 0.316 µM, first compound 10 µM
[31] = second compound 1 µM, first compound 0.0316 µM
[32] = second compound 1 µM, first compound 0.1 µM
[33] = second compound 1 µM, first compound 0.316 µM
[34] = second compound 1 µM, first compound 1 µM
[35] = second compound 1 µM, first compound 3.16 µM
[36] = second compound 1 µM, first compound 10 µM
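Further: spheroids exposed to agents for seven days before readout.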
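Wherever viability, T/C is given: percent of vehicle DMSO control viability which is 100%.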

CC(Cn1ccc(-c2ccc(C#N)c(Cl)c2)n1)NC(=O)c1cc(C(C)O)[nH]n1 (centres undefined) + CC(Nc1ccc2c(c1)OCCn1cc(N3C(=O)OCC3C(F)F)nc1-2)C(N)=O
inactive: viability, T/C [1] 91.8% | viability, T/C [2] 127% | viability, T/C [3] 99% | viability, T/C [4] 96.2% | viability, T/C [5] 94.4% | viability, T/C [6] 53.1% | viability, T/C [7] 140% | viability, T/C [8] 86.2% | viability, T/C [9] 86.4% | viability, T/C [10] 70.8% | viability, T/C [11] 63.5% | viability, T/C [12] 57.4% | viability, T/C [13] 67.4% | viability, T/C [14] 96.8% | viability, T/C [15] 78% | viability, T/C [16] 78.6% | viability, T/C [17] 74.1% | viability, T/C [18] 59.9% | viability, T/C [19] 81.5% | viability, T/C [20] 114% | viability, T/C [21] 62.3% | viability, T/C [22] 117% | viability, T/C [23] 79.5% | viability, T/C [24] 55.3% | viability, T/C [25] 77.1% | viability, T/C [26] 66.1% | viability, T/C [27] 76.8% | viability, T/C [28] 58.7% | viability, T/C [29] 110% | viability, T/C [30] 46.4% | viability, T/C [31] 75.5% | viability, T/C [32] 39% | viability, T/C [33] 65.6% | viability, T/C [34] 72.9% | viability, T/C [35] 60% | viability, T/C [36] 50.8%
8.89 µM: IC50 (second compound 0.01 µM)
> 10 µM: IC50 (second compound 0.00316 µM) | IC50 (second compound 0.0316 µM) | IC50 (second compound 0.1 µM) | IC50 (second compound 0.316 µM) | IC50 (second compound 1 µM)

CCCS(=O)(=O)Nc1ccc(F)c(C(=O)c2c[nH]c3ncc(-c4ccc(Cl)cc4)cc23)c1F + CC(Nc1ccc2c(c1)OCCn1cc(N3C(=O)OCC3C(F)F)nc1-2)C(N)=O
active: viability, T/C [6] 3.89% | viability, T/C [12] 4.85% | viability, T/C [18] 4.59% | viability, T/C [24] 5.88% | viability, T/C [30] 6.23% | viability, T/C [36] 6.69%
2.23 µM: IC50 (second compound 0.00316 µM)
1.68 µM: IC50 (second compound 0.01 µM)
< 0.0316 µM: IC50 (second compound 0.1 µM) | IC50 (second compound 0.316 µM) | IC50 (second compound 1 µM)
inactive: viability, T/C [1] 67% | viability, T/C [2] 57.9% | viability, T/C [3] 61.3% | viability, T/C [4] 51.6% | viability, T/C [5] 49.6% | viability, T/C [7] 95.3% | viability, T/C [8] 56.5% | viability, T/C [9] 67.8% | viability, T/C [10] 56% | viability, T/C [11] 49.7% | viability, T/C [13] 69.3% | viability, T/C [14] 52.4% | viability, T/C [15] 69.7% | viability, T/C [16] 32.1% | viability, T/C [17] 65.4% | viability, T/C [19] 38.9% | viability, T/C [20] 53% | viability, T/C [21] 47.8% | viability, T/C [22] 45.9% | viability, T/C [23] 38.5% | viability, T/C [25] 43.5% | viability, T/C [26] 57.1% | viability, T/C [27] 55% | viability, T/C [28] 43.1% | viability, T/C [29] 47.3% | viability, T/C [31] 55.9% | viability, T/C [32] 44% | viability, T/C [33] 46.9% | viability, T/C [34] 34% | viability, T/C [35] 50.1%
3.74 µM: IC50 (second compound 0.0316 µM)
